From patent publication US20250129088A1, “CEREBLON E3 UBIQUITIN LIGASE INHIBITOR” (Gan & Lee Pharmaceuticals Co., Ltd., priority 2022, published 2025)
pIC50: −log10 of the molar value.

Assays:
Format in all cases: cell-based
A549 cells = experiment: A549 cell proliferation inhibition, CCK-8; settings: Homo sapiens, 96 h, A549, 4 days
Procedure: The complete medium required for A549 cells is F-12K (ATCC, Product number: 30-2004) basal medium containing 10% fetal bovine serum. A549 cells were seeded in a 96-well plate at a density of 2,800 cells/well, and the next day, different concentrations of the compound of the present invention and a positive control sample Ceritinib (source: Bide Pharmaceuticals) were prepared to treat the cells. The cells were incubated at 37° C., 5% CO2 cell incubator for 4 days. Cell viability was detected using the CCK-8 kit (Beyotime, Product number: C0040) according to the manufacturer's instructions. According to the inhibition rate, the GraphPad Prism software was used to calculate the IC50 value of each compound for 4 days, and the results are shown in Table 3.

HeLa cells = experiment: HeLa cell proliferation inhibition, CCK-8; settings: Homo sapiens, 72 h, 3 days
Procedure: The complete medium required for HeLa cells is DMEM high glucose (Gibco, Product number: 11995-065) basal medium containing 10% fetal bovine serum. HeLa cells were seeded in a 96-well plate at a density of 4,000 cells/well, and the next day, different concentrations of the compound of the present invention and the positive control sample Ceritinib (source: Bide Pharmaceuticals) were prepared to treat the cells. The cells were incubated at 37° C., 5% CO2 cell culture incubator for 3 days. Cell viability was detected using the CCK-8 kit (Beyotime, Product number: C0040) according to the manufacturer's instructions. According to the inhibition rate, GraphPad Prism software was used to calculate the IC50 value of each compound for 3 days, and the results are shown in Table 2.

K562 cells = experiment: K562 cell proliferation inhibition, CCK-8; settings: Homo sapiens, 96 h, K562, 4 days, Table 12, positive control dBET6
Procedure: The complete medium required for K562 cells is IMDM (ATCC, Product number: 30-2005) basal medium containing 10% fetal bovine serum. K562 cells were seeded in a 96-well plate at a density of 7,500 cells/well, and different concentrations of the compound of the present invention and positive control samples Alisertib (source: Bide Pharmaceuticals) and dBET6 (source: Bide Pharmaceuticals) were prepared to treat the cells. The cells were incubated at a 37° C., 5% CO2 cell culture incubator for 4 days.
Cell viability was detected using the CCK-8 kit (Beyotime, Product number: C0040) according to the manufacturer's instructions. According to the inhibition rate, GraphPad Prism software was used to calculate the IC50 value of each compound for 4 days, and the results are shown in Table 11-12.

MOLM-13 cells = experiment: MOLM-13 cell proliferation inhibition, CCK-8; settings: Homo sapiens, 96 h, MOLM-13, 4 days, Table 9
Procedure: The complete medium required for MOLM-13 cells is 1640 (ATCC, Product number: 30-2001) basal medium containing 20% fetal bovine serum. MOLM-13 cells were seeded in a 96-well plate at a density of 7,500 cells/well, and different concentrations of the compounds of the present invention were prepared to treat the cells at the same time. The cells were incubated in a 37° C., 5% CO2 cell culture incubator for 4 days. Cell viability was detected using the CCK-8 kit (Beyotime, Product number: C0040) according to the manufacturer's instructions. According to the inhibition rate, GraphPad Prism software was used to calculate the IC50 value of each compound for 4 days, and the results are shown in Table 9-10.

MCF-7 cells = experiment: MCF-7 cell proliferation inhibition, CCK-8; settings: Homo sapiens, MCF7, 216 h, MCF-7, 9 days
Procedure: The complete medium required for MCF-7 cells is DMEM (gibco, Product number: 11995-065) basal medium containing 10% fetal bovine serum. MCF-7 cells were seeded in a 96-well plate at a density of 800/well, and different concentrations of the compound of the present invention and the positive control sample ARV-471 (source: Enochem) were prepared to treat the cells. The cells were incubated at 37° C., 5% 9 days in a CO2 cell incubator. Cell viability was detected using the CCK-8 kit (Beyotime, Product number: C0040) according to the manufacturer's instructions. According to the inhibition rate, GraphPadPrism software was used to calculate the IC50 value of each compound for 9 days, and the results are shown in Table 18.

T-47D cells = experiment: T-47D cell proliferation inhibition, CCK-8; settings: Homo sapiens, T47D, 144 h, 6 days
Procedure: The complete medium required for T-47D cells is 1640 (ATCC, Product number: A10491-01) basal medium containing 10% fetal bovine serum. T-47D cells were seeded in a 96-well plate at a density of 3,000/well, and different concentrations of the compound of the present invention and the positive control sample ARV-471 (source: Innochem) were prepared to treat the cells. The cells were incubated at 37° C., 5% for 6 days in a CO2 cell incubator. Cell viability was detected using the CCK-8 kit (Beyotime, Product number: C0040) according to the manufacturer's instructions. According to the inhibition rate, the GraphPadPrism software was used to calculate the IC50 value of each compound for 6 days, and the results are shown in Table 17.

pIC50 (A549 cells) | pIC50 (HeLa cells) | SMILES | other results
 |  | Cc1nc(Nc2ncc(C(=O)Nc3c(C)cccc3Cl)s2)cc(N2CCN(CCOCCC(=O)N3CCC4(CCc5cc6c(cc5O4)C(=O)N(C4CCC(=O)NC4=O)C6=O)CC3)CC2)n1 (stereo not drawn) [PROTAC 9, N-(2-chloro-6-methylphenyl)-2-((6-(4-(2-(3-(7′-(2,6-dioxopiperidin-3-yl)-6′,8′-dioxo-4′,6′,7′,8′-tetrahydro-3′H-spiro[piperidine-4,2′-pyrano[2,3-f]isoindol]-1-yl)-3-oxopropoxy)ethyl)piperazin-1-yl)-2-methylpyrimidin-4-yl)amino)thiazole-5-carboxamide] | pIC50 (K562 cells): 7.80; pIC50 (MOLM-13 cells): 5.95
 |  | Cc1nc(Nc2ncc(C(=O)Nc3c(C)cccc3Cl)s2)cc(N2CCN(CCOCCC(=O)N3CCC4(CC3)COc3cc5c(cc3C4)C(=O)N(C3CCC(=O)NC3=O)C5=O)CC2)n1 (stereo not drawn) [PROTAC 10, N-(2-chloro-6-methylphenyl)-2-((6-(4-(2-(3-(7′-(2,6-dioxopiperidin-3-yl)-6′,8′-dioxo-4′,6′,7′,8′-tetrahydro-2′H-spiro[piperidine-4,3′-pyrano[2,3-f]isoindole]-1-yl)-3-oxopropoxy)ethyl)piperazin-1-yl)-2-methylpyrimidin-4-yl)amino)thiazole-5-carboxamide] | pIC50 (K562 cells): 7.77; pIC50 (MOLM-13 cells): 5.98
 |  | Cc1nc(Nc2ncc(C(=O)Nc3c(C)cccc3Cl)s2)cc(N2CCN(CCOCCC(=O)N3CCC4(CC3)COc3cc5c(cc34)C(=O)N(C3CCC(=O)NC3=O)C5=O)CC2)n1 (stereo not drawn) [PROTAC 12, N-(2-chloro-6-methylphenyl)-2-((6-(4-(2-(3-(6-(2,6-dioxopiperidin-3-yl)-5,7-dioxo-6,7-dihydro-2H,5H-spiro[furo[2,3-f]isoindole-3,4′-piperidin]-1′-yl)-3-oxopropoxy)ethyl)piperazin-1-yl)-2-methylpyrimidin-4-yl)amino)thiazole-5-carboxamide] | pIC50 (K562 cells): 7.40; pIC50 (MOLM-13 cells): 5.32
5.15 | 5.66 | Cc1cc(Nc2ncc(Cl)c(Nc3ccccc3S(=O)(=O)C(C)C)n2)c(OC(C)C)cc1C1CCN(CCOCCC(=O)N2CCC3(CCc4cc5c(cc4O3)CN(C3CCC(=O)NC3=O)C5=O)CC2)CC1 (stereo not drawn) [PROTAC 25] | 
5.37 | 5.36 | Cc1cc(Nc2ncc(Cl)c(Nc3ccccc3S(=O)(=O)C(C)C)n2)c(OC(C)C)cc1C1CCN(CCOCCC(=O)N2CCC3(CCc4cc5c(cc4O3)C(=O)N(C3CCC(=O)NC3=O)C5)CC2)CC1 (stereo not drawn) [PROTAC 26, 3-(1-(3-(2-(4-(4-((5-chloro-4-((2-(isopropylsulfonyl)phenyl)amino)pyrimidin-2-yl)amino)-5-isopropoxy-2-methylphenyl)piperidin-1-yl)ethoxy)propionyl)-8′-oxo-3′,4′,6′,8′-tetrahydro-7′H-spiro[piperidine-4,2′-pyrano[2,3-f]isoindole]-7′-yl)piperidine-2,6-dione] | 
4.94 | 5.37 | Cc1cc(Nc2ncc(Cl)c(Nc3ccccc3S(=O)(=O)C(C)C)n2)c(OC(C)C)cc1C1CCN(CCOCCC(=O)N2CC3(CCc4cc5c(cc4O3)CN(C3CCC(=O)NC3=O)C5=O)C2)CC1 (stereo not drawn) [PROTAC 27, 3-(1-(3-(2-(4-(4-((5-chloro-4-((2-(isopropylsulfonyl)phenyl)amino)pyrimidin-2-yl)amino)-5-isopropoxy-2-methylphenyl)piperidin-1-yl)ethoxy)propionyl)-6′-oxo-3′,4′,6′,8′-tetrahydro-7′H-spiro[azetidine-3,2′-pyrano[2,3-f]isoindole]-7′-yl)piperidine-2,6-dione] | 
5.17 | 5.36 | Cc1cc(Nc2ncc(Cl)c(Nc3ccccc3S(=O)(=O)C(C)C)n2)c(OC(C)C)cc1C1CCN(CCOCCC(=O)N2CC3(CCc4cc5c(cc4O3)C(=O)N(C3CCC(=O)NC3=O)C5)C2)CC1 (stereo not drawn) [PROTAC 28, 3-(1-(3-(2-(4-(4-((5-chloro-4-((2-(isopropylsulfonyl)phenyl)amino)pyrimidin-2-yl)amino)-5-isopropoxy-2-methylphenyl)piperidin-1-yl)ethoxy)propionyl)-8′-oxo-3′,4′,6′,8′-tetrahydro-7′H-spiro[azetidine-3,2′-pyrano[2,3-f]isoindole]-7′-yl)piperidine-2,6-dione] | 
5.36 | 5.27 | Cc1cc(Nc2ncc(Cl)c(Nc3ccccc3S(=O)(=O)C(C)C)n2)c(OC(C)C)cc1C1CCN(CCOCCC(=O)N2CCC3(CCc4cc5c(cc4O3)C(=O)N(C3CCC(=O)NC3=O)C5=O)CC2)CC1 (stereo not drawn) [PROTAC 29, 1-(3-(2-(4-(4-((5-chloro-4-((2-(isopropylsulfonyl)phenyl)amino)pyrimidin-2-yl)amino)-5-isopropoxy-2-methylphenyl)piperidin-1-yl)ethoxy)propionyl)-7′-(2,6-dioxopiperidin-3-yl)-3′,4′-dihydro-6′H-spiro[piperidine-4,2′-pyrano[2,3-f]isoindole]-6′,8′(7′H)-dione] | 
5.36 | 5.51 | Cc1cc(Nc2ncc(Cl)c(Nc3ccccc3S(=O)(=O)C(C)C)n2)c(OC(C)C)cc1C1CCN(CCOCCC(=O)N2CCC3(CC2)COc2cc4c(cc2C3)C(=O)N(C2CCC(=O)NC2=O)C4=O)CC1 (stereo not drawn) [PROTAC 30, 1-(3-(2-(4-(4-((5-chloro-4-((2-(isopropylsulfonyl)phenyl)amino)pyrimidin-2-yl)amino)-5-isopropoxy-2-methylphenyl)piperidin-1-yl)ethoxy)propionyl)-7′-(2,6-dioxopiperidin-3-yl)-2′H-spiro[piperidine-4,3′-pyrano[2,3-f]isoindole]-6′,8′(4′H,7′H)-dione] | 
4.99 | 5.33 | Cc1cc(Nc2ncc(Cl)c(Nc3ccccc3S(=O)(=O)C(C)C)n2)c(OC(C)C)cc1C1CCN(CCOCCC(=O)N2CCC3(CC2)COc2cc4c(cc23)C(=O)N(C2CCC(=O)NC2=O)C4=O)CC1 (stereo not drawn) [PROTAC 31, 1′-(3-(2-(4-(4-((5-chloro-4-((2-(isopropylsulfonyl)phenyl)amino)pyrimidin-2-yl)amino)-5-isopropoxy-2-methylphenyl)piperidin-1-yl)ethoxy)propionyl)-6-(2,6-dioxopiperidin-3-yl)-6-hydrogen-2H,5H-spiro[furo[2,3-f]isoindole-3,4′-piperidine]-5,7-dione] | 
 |  | O=C1CCC(N2Cc3cc4c(cc3C2=O)CCC2(CN(C3CCC5(CC3)CCN(c3ccc([C@@H]6c7ccc(O)cc7CC[C@@H]6c6ccccc6)cc3)CC5)C2)O4)C(=O)N1 (stereo partly drawn) [PROTAC 52, 3-(1-(3-(4-((1R,2S)-6-hydroxy-2-phenyl-1,2,3,4-tetrahydronaphthalen-1-yl)phenyl)-3-azaspiro [5.5]undec-9-yl)-6′-oxo-3′,4′,6′,8′-tetrahydro-7′H-spiro[azetidine-3,2′-pyrano[2,3]isoindol]-7′-yl)piperidine-2,6-dione] | pIC50 (MCF-7 cells): 7.52; pIC50 (T-47D cells): 8.04

SMILES | pIC50 (A549 cells) | pIC50 (HeLa cells) | other results
Cc1cc(Nc2ncc(Cl)c(Nc3ccccc3S(=O)(=O)C(C)C)n2)c(OC(C)C)cc1C1CCNCC1 [Ceritinib, reference compound] | 5.37 | 5.22 | 
